The inhibition is the percentage by which the read-out fell short of the control.

One assay deals with mouse medulloblastoma. In words: In vivo anti-tumor test, mouse medulloblastoma allogeneic transplantation model. The settings on record: 1 mg/kg, orally once a day for 2 weeks; subcutaneous medulloblastoma in nude mouse; at the end of the test; p < 0.025 (Dunnett's test). The protocol: According to the description in Sasaki, K. et al., (2006) Cancer Res. 66: 4215-4222, an anti-tumor effect of a compound was evaluated using a mouse medulloblastoma allogeneic transplantation model. To be precise, Patched 1 gene mutant mouse (lineage name: Ptch1tm1Mps/J) was purchased from The Jackson Laboratory and p53 gene mutant mouse (lineage name: P53N4-M, Nomenclature: B6.129-Trp53tm/BrdN4) was purchased from Taconic, and a mouse of Patched 1(+/−), p53(−/−) phenotype was prepared by mating. […]
An anti-tumor test was performed using a tumor passaged by subcutaneous transplantation. […] The tumor diameter after transplantation was measured and, when the tumor size reached 150-250 mm^3, the anti-tumor test was started using 5 mice per group.
The test compound was prepared to achieve a dose of 1 mg/kg with a 0.5% methylcellulose (Shin-Etsu Chemical Co., Ltd., Cat. No. SM-100) suspension, and orally administered once a day for 2 weeks. The tumor size was calculated based on the longer diameter and shorter diameter of the tumor measured with an electron vernier caliper. After the start of the test, the tumor size was measured every 2 or 3 days and the growth rate of the tumor size was calculated. […]
With `CCc1nc2c(cc1NC(=O)c1ccccc1)c(OC(C)C)c(C(=O)NC1CCN(C(=O)CO)CC1)n2C` [Example 46, 6-ethyl-N-[1-(hydroxyacetyl)piperidin-4-yl]-1-methyl-3-(1-methylethoxy)-5-[(phenylcarbonyl)amino]-1H-pyrrolo[2,3-b]pyridine-2-carboxamide], the “T/C (%) (growth rate of the tumor size)” value is 51%.

The subject of the next assay is Hedgehog signal transduction system (Smo). The assay is described as follows: Gli reporter luciferase assay in NIH-3T3/Gli reporter cells stimulated with mouse Shh-N end fragment. The settings on record: NIH3T3; 1 μM compound; NIH-3T3/Gli reporter cells with mouse Shh-N end fragment culture supernatant, 48 hr; luciferase activity, control without compound as 100; read-out: inhibition rate (%) at 1 μM. Type of assay: cell-based. A digest of the protocol: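 NIH-3T3 cells stably carrying a luciferase reporter driven by 8× Gli-binding sites and chicken δ-crystalline promoter, plated at 1×10^4 cells/well and cultured overnight at 37° C in 10% FBS D-MEM. Compound added with recombinant mouse Shh-N fragment (aa 1–198, HEK293-expressed) to induce signaling; luciferase read-out.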
On to `CCc1nc2c(cc1NC(=O)c1ccccc1)c(OC(C)C)c(C(=O)NC1CCN(C(=O)CO)CC1)n2C` [Example 46, 6-ethyl-N-[1-(hydroxyacetyl)piperidin-4-yl]-1-methyl-3-(1-methylethoxy)-5-[(phenylcarbonyl)amino]-1H-pyrrolo[2,3-b]pyridine-2-carboxamide], for which the inhibition at 1 µM was found to be 98%.

As for `CCc1nc2c(cc1NC(=O)c1cscc1OC)c(OC(C)C)c(C(=O)NC1CCN(C(=O)CO)CC1)n2C` [Example 62, 6-ethyl-N-[1-(hydroxyacetyl)piperidin-4-yl]-5-{[(4-methoxythiophene-3-yl)carbonyl]amino}-1-methyl-3-(1-methylethoxy)-1H-pyrrolo[2,3-b]pyridine-2-carboxamide], the inhibition at 1 µM worked out at 98%.

As for `CCc1nc2c(cc1NC(=O)c1ccsc1)c(OC(C)C)c(C(=O)NC1CCN(C(=O)CO)CC1)n2C` [Example 61, 6-ethyl-N-[1-(hydroxyacetyl)piperidin-4-yl]-1-methyl-3-(1-methylethoxy)-5-[(thiophen-3-ylcarbonyl)amino]-1H-pyrrolo[2,3-b]pyridine-2-carboxamide], the inhibition at 1 µM stood at 98%.

With `CCc1nc2c(cc1NC(=O)c1ccco1)c(OCC(F)(F)F)c(C(=O)NC1CCN(C(=O)CO)CC1)n2C` [Example 52, 6-ethyl-5-[(furan-2-ylcarbonyl)amino]-N-[1-(hydroxyacetyl)piperidin-4-yl]-1-methyl-3-(2,2,2-trifluoroethoxy)-1H-pyrrolo[2,3-b]pyridine-2-carboxamide], the inhibition at 1 µM came to 94%.

With `Cc1cc2sc(C(=O)NC3CCN(C(=O)CO)CC3)c(OCC(F)(F)F)c2cc1NC(=O)c1ccccc1` [Example 68, N-[1-(hydroxyacetyl)piperidin-4-yl]-6-methyl-5-[(phenylcarbonyl)amino]-3-(2,2,2-trifluoroethoxy)-1-benzothiophene-2-carboxamide], the inhibition at 1 µM stood at 96%.

For `CCc1nc2c(cc1NC(=O)c1ccccc1)c(OC(C)C)c(C(=O)NCCS(=O)(=O)CCOC)n2C` [Example 60, 6-ethyl-N-{2-[(2-methoxyethyl)sulfonyl]ethyl}-1-methyl-3-(1-methylethoxy)-5-[(phenylcarbonyl)amino]-1H-pyrrolo[2,3-b]pyridine-2-carboxamide], the inhibition at 1 µM stood at 95%.
